{"source": "patent US20160088853A1", "about": "“Ultraviolet Disinfection of Produce, Liquids and Surfaces” (DREXEL UNIVERSITY, priority 2013, published 2016)", "key": {"[1]": {"test_system": "E. coli 0157:H7", "conditions": "in lettuce; cited from earlier work"}, "[2]": {"experiment": "Solution absorbance at 254 nm", "assay_type": "physicochemical"}, "[3]": {"conditions": "for change in relative fluorescence intensity: 12 minutes of UV exposure; for fluorescence decay rate constant: 1 μM fluorescein, UV", "method": "In this example, fluorescein dye was used to detect the presence of free radicals, since interactions of oxidizing free radicals with fluorescein quench the fluorescence signal intensity. A fluorescein dye solution (4 μg/L) containing 0.4% (w/v) fructose and a fluorescein dye solution (4 μg/L) without fructose (control) were exposed to UV radiation at wavelength of 254 nm.\nA batch-UV processing unit (Spectronics Spectrolinker XL-1500 UV Crosslinker, Westbury, N.Y.) was used for Examples 5-10. The apparatus consisted of 5 UV lamps (254 nm, 15 W, Spectronics Corporation, Westbury, N.Y.) that generated a UV intensity of approximately 20 mW/cm^2 at the surface of exposure mounted within a shielded box (46.4×15.9×31.8 cm). Fluorescence intensity measurement noise was minimized by allowing the lamps to warm up for at least 15 minutes prior to taking measurements.\nThe test fluorescein solution with approximately 1 μM fluorescein was prepared in deionized water (pH 6.3) or 100 mM buffer at pH 6. […] Specifically, treatments were carried out by adding a 10.0 ml solution into an uncovered glass petri dish and exposing it to UV radiation for various amounts of time (0-12 minutes) in the UV processing unit. The samples in the petri dish were stirred to achieve uniform exposure to UV light. Ambient room temperature (20-22° C.) was used for the treatments. To measure the fluorescence intensity of the solution, at each time interval, 100 μl of the sample was pipetted from the petri dish into a well of a 96-well plate optimized for fluorescence measurement. Fluorescence was measured in a Gemini XPS fluorescence micro-plate reader (Molecular Devices, Sunnyvale, Calif.) with excitation and emission wavelengths of 485 nm and 510 nm, respectively. All the fluorescence values were normalized using Eq. (1):\nwhere I0=fluorescence intensity at time t=0 minutes and It=fluorescence intensity after ‘t’ minutes of UV exposure."}, "[4]": {"test_system": "E. coli BL-21", "experiment": "UV inactivation of E. coli BL-21 suspension, plate count", "assay_type": "cell-based", "conditions": "1% (w/v) gallic acid, UV 10 seconds, 109 CFU/mL in phosphate buffer, FIG. 6", "method": "E. coli BL-21 was suspended in phosphate buffer at the level of 10^9 CFU/mL. Gallic acid was incorporated into bacterial suspension at the level of 1% (w/v). This suspension was exposed to UV light (intensity of 4 mJ/cm^2) for 10 seconds. The control experiment was performed in the exact same manner except for addition of gallic acid. After UV treatment, the cells were separated from the buffer through centrifugation and bacterial inactivation was measured using a plate count technique."}, "[5]": {"test_system": "bacterial and fungal strains", "conditions": "riboflavin with UV 365 nm, artificial surface; cited from earlier work"}, "[6]": {"conditions": "in the presence of fructose, model apple juice system; cited from earlier work"}}, "note": "Where two headings read alike, the source gives them in different places.", "data": [{"compound": "Acidified sodium chlorite", "values": [{"measurement": "reduction of E. coli 0157:H7", "setting": "[1]", "value": "≤ 5", "unit": "log"}]}, {"compound": "c1ccoc1", "note": "[furan, reference compound]", "values": [{"measurement": "average absorbance at 254 nm", "setting": "[2]; 132 μM", "value": "less than 0.001"}, {"measurement": "change in relative fluorescence intensity", "setting": "[3]; 33 μM furan", "value": "< 20", "unit": "%"}, {"measurement": "change in relative fluorescence intensity", "setting": "[3]; 66 μM furan", "value": "< 20", "unit": "%"}]}, {"compound": "O=C(O)c1cc(O)c(O)c(O)c1", "note": "[gallic acid, 3,4,5-trihydroxybenzoic acid]", "values": [{"measurement": "microbial count after exposure to UV light", "setting": "[4]", "value": "undetectable"}]}, {"compound": "Cc1cc2nc3c(=O)[nH]c(=O)nc-3n(C[C@H](O)[C@H](O)[C@H](O)CO)c2cc1C", "note": "[Riboflavin]", "values": [{"measurement": "inactivation of bacterial and fungal strains", "setting": "[5]", "value": "effective in inactivating most of the bacterial and fungal strains"}]}, {"compound": "O=C(CO)[C@@H](O)[C@H](O)[C@H](O)CO", "note": "[fructose]", "values": [{"measurement": "average absorbance at 254 nm", "setting": "[2]; 500 mM solution", "value": 0.12}, {"measurement": "fluorescence decay rate constant", "setting": "[3]; 10 mM fructose", "value": "0.16 ± 0.01", "unit": "min⁻¹"}, {"measurement": "fluorescence decay rate constant", "setting": "[3]; 20 mM fructose", "value": "0.27 ± 0.02", "unit": "min⁻¹"}, {"measurement": "fluorescence decay rate constant", "setting": "[3]; 100 mM fructose", "value": "0.91 ± 0.02", "unit": "min⁻¹"}, {"measurement": "fluorescence decay rate constant", "setting": "[3]; 300 mM fructose", "value": "2.1 ± 0.06", "unit": "min⁻¹"}, {"measurement": "fluorescence decay rate constant", "setting": "[3]; 500 mM fructose", "value": "2.4 ± 0.13", "unit": "min⁻¹"}, {"measurement": "fluorescence lost", "setting": "[3]; 500 mM fructose, within 2 minutes of UV exposure, FIG. 10A", "value": "more than 90%"}, {"measurement": "UV induced rate of degradation of patulin", "setting": "[6]", "value": "increased"}]}]}
